How the values were obtained:
Assay type in all cases: in vivo
[1] = test system: wheat (Triticum aestivum); experiment: Test A postemergence; details: Triticum aestivum, post-emergence, 240 h, 125 g ai/ha, postemergence; visual injury after approximately 10 d; 0 to 100 scale (0 no effect, 100 complete control); read-out: Plant response rating, Wheat
How it was run: (§1)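 Preemergence directed soil spray on seeded pots, or postemergence application to plants 2–10 cm, one- to two-leaf. Solvent mixture non-phytotoxic, with surfactant. Scored ~10 d later, visually, 0–100 vs untreated.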

[2] = test system: ryegrass, Italian (Italian ryegrass, Lolium multiflorum); experiment: Test A postemergence; details: Lolium multiflorum, post-emergence, 240 h, 125 g ai/ha, postemergence; visual injury after approximately 10 d; 0 to 100 scale (0 no effect, 100 complete control); read-out: Plant response rating, Ryegrass, Italian
How it was run: as §1

Kochia (Kochia scoparia) [3] = experiment: Test A postemergence; details: Bassia scoparia, post-emergence, 240 h, 125 g ai/ha, postemergence; visual injury after approximately 10 d; 0 to 100 scale (0 no effect, 100 complete control); read-out: Plant response rating, Kochia
How it was run: as §1

[4] = test system: blackgrass (Alopecurus myosuroides); experiment: Test A postemergence; details: Alopecurus myosuroides, post-emergence, 240 h, 125 g ai/ha, postemergence; visual injury after approximately 10 d; 0 to 100 scale (0 no effect, 100 complete control); read-out: Plant response rating, Blackgrass
How it was run: as §1

[5] = test system: ragweed (common ragweed, Ambrosia elatior); experiment: Test A postemergence; details: Ambrosia artemisiifolia, post-emergence, 240 h, 125 g ai/ha, postemergence; visual injury after approximately 10 d; 0 to 100 scale (0 no effect, 100 complete control); read-out: Plant response rating, Ragweed
How it was run: as §1

[6] = test system: giant foxtail (Setaria faberii); experiment: Test A preemergence; details: Setaria faberi, pre-emergence, 240 h, preemergence, read-out: Plant response rating, Foxtail, Giant; for pest or weed control at 125 g/ha: 125 g ai/ha, visual rating after approx. 10 d, 0 to 100 scale where 0 is no effect and 100 is complete control; for pest or weed control at 500 g/ha: 500 g ai/ha, 0 to 100 scale, 0 = no effect, 100 = complete control
How it was run: as §1

[7] = test system: pigweed (Amaranthus retroflexus); experiment: Test A preemergence; details: Amaranthus retroflexus, pre-emergence, 240 h, preemergence, read-out: Plant response rating, Pigweed; for pest or weed control at 125 g/ha: 125 g ai/ha, visual rating after approx. 10 d, 0 to 100 scale where 0 is no effect and 100 is complete control; for pest or weed control at 500 g/ha: 500 g ai/ha, 0 to 100 scale, 0 = no effect, 100 = complete control
[8] = test system: ryegrass, Italian (Italian ryegrass, Lolium multiflorum); experiment: Test A preemergence; details: Lolium multiflorum, pre-emergence, 240 h, preemergence, read-out: Plant response rating, Ryegrass, Italian; for pest or weed control at 125 g/ha: 125 g ai/ha, visual rating after approx. 10 d, 0 to 100 scale where 0 is no effect and 100 is complete control; for pest or weed control at 500 g/ha: 500 g ai/ha, 0 to 100 scale, 0 = no effect, 100 = complete control
How it was run: as §1

[9] = test system: barnyardgrass (Echinochloa crus-galli); experiment: Test A preemergence; details: Echinochloa crus-galli, pre-emergence, 240 h, preemergence, read-out: Plant response rating, Barnyardgrass; for pest or weed control at 125 g/ha: 125 g ai/ha, visual rating after approx. 10 d, 0 to 100 scale where 0 is no effect and 100 is complete control; for pest or weed control at 500 g/ha: 500 g ai/ha, 0 to 100 scale, 0 = no effect, 100 = complete control
How it was run: as §1

Kochia (Kochia scoparia) [10] = experiment: Test A preemergence; details: Bassia scoparia, pre-emergence, 240 h, preemergence, read-out: Plant response rating, Kochia; for pest or weed control at 125 g/ha: 125 g ai/ha, visual rating after approx. 10 d, 0 to 100 scale where 0 is no effect and 100 is complete control; for pest or weed control at 500 g/ha: 500 g ai/ha, 0 to 100 scale, 0 = no effect, 100 = complete control
How it was run: as §1

[11] = test system: ragweed (common ragweed, Ambrosia elatior); experiment: Test A preemergence; details: Ambrosia artemisiifolia, pre-emergence, 240 h, preemergence, read-out: Plant response rating, Ragweed; for pest or weed control at 125 g/ha: 125 g ai/ha, visual rating after approx. 10 d, 0 to 100 scale where 0 is no effect and 100 is complete control; for pest or weed control at 500 g/ha: 500 g ai/ha, 0 to 100 scale, 0 = no effect, 100 = complete control
How it was run: as §1

rice (Oryra sativa) = experiment: Test B flooded paddy test; details: Oryza sativa, Flood, 250 g ai/ha; scale of 0 to 100 where 0 is no effect and 100 is complete control; read-out: Rice plant response rating
How it was run: (§2)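 Greenhouse paddy pots with 2-leaf stage plants received compound by direct addition to floodwater 3 cm deep, kept at that level. Scored visually at 13–15 d versus controls (0 no effect; 100 complete control).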

[12] = test system: barnyardgrass (Echinochloa crus-galli); experiment: Test B flooded paddy test; details: Echinochloa crus-galli, Flood, 250 g ai/ha; scale of 0 to 100 where 0 is no effect and 100 is complete control; read-out: Barnyardgrass plant response rating
How it was run: as §2

[13] = test system: sedge, umbrella (small-flower umbrella sedge, Cyperus difformis); experiment: Test B flooded paddy test; details: Cyperus difformis, Flood, 250 g ai/ha; scale of 0 to 100 where 0 is no effect and 100 is complete control; read-out: Sedge, Umbrella plant response rating
How it was run: as §2

[14] = test system: ducksalad (Heteranthera limosa); experiment: Test B flooded paddy test; details: Heteranthera limosa, Flood, 250 g ai/ha; scale of 0 to 100 where 0 is no effect and 100 is complete control; read-out: Ducksalad plant response rating
How it was run: as §2

SMILES	plant injury at 125 g/ha [1] [%]	pest or weed control at 125 g/ha [2] [%]	pest or weed control at 125 g/ha (Kochia (Kochia scoparia) [3]) [%]	pest or weed control at 125 g/ha [4] [%]	pest or weed control at 125 g/ha [5] [%]	pest or weed control at 125 g/ha [6] [%]	pest or weed control at 500 g/ha [6] [%]	pest or weed control at 125 g/ha [7] [%]	pest or weed control at 500 g/ha [7] [%]	pest or weed control at 125 g/ha [8] [%]	pest or weed control at 500 g/ha [8] [%]	pest or weed control at 125 g/ha [9] [%]	pest or weed control at 500 g/ha [9] [%]	pest or weed control at 125 g/ha (Kochia (Kochia scoparia) [10]) [%]	pest or weed control at 500 g/ha (Kochia (Kochia scoparia) [10]) [%]	pest or weed control at 125 g/ha [11] [%]	pest or weed control at 500 g/ha [11] [%]	pest or weed control at 250 g/ha (rice (Oryra sativa)) [%]	pest or weed control at 250 g/ha [12] [%]	pest or weed control at 250 g/ha [13] [%]	also measured
C=CCN1C[C@H](c2ccc(OC)c(F)c2)[C@@H](C(=O)Nc2ccccc2C(F)(F)F)C1=O [Compound 723]	0	0	0	0	0	0	50	0	0	0	0	0	0	0	0	0	0	0	0	0	pest or weed control at 250 g/ha [14]: 0%
O=C1NC[C@H](c2ccc3c(c2)OCO3)[C@H]1C(=O)Nc1cccc(F)c1F [Compound 731]	0	0	0	0	0	40	90	0	0	20	40	80	90	0	60	0	70	20	60	0	pest or weed control at 250 g/ha [14]: 100%
Cc1ccc([C@H]2CN(C)C(=O)[C@@H]2C(=O)Nc2cccc(F)c2C)cc1C [Compound 732]	80	50	20	50	0	90	90	0	20	80	80	90	100	70	90	0	70	0	45	0	pest or weed control at 250 g/ha [14]: 100%
CCc1cc(CC)cc([C@H]2CN(C)C(=O)[C@@H]2C(=O)Nc2ccccc2C(F)(F)F)c1 [Compound 737]	40	50	0	30	0	90	90	0	0	40	70	70	80	40	50	0	0	0	0	0	pest or weed control at 250 g/ha [14]: 0%
O=C1NC[C@H](c2cnc(C(F)(F)F)nc2)[C@H]1C(=O)Nc1ccccc1F [Compound 741]	0	0	0	0	0	0	0	0	40	0	0	0	0	0	30	0	0	0	0	40	pest or weed control at 250 g/ha [14]: 90%
O=C1NC[C@H](c2ccc(C(F)(F)F)cc2)[C@H]1C(=O)Nc1ccccc1C1CC1 [Compound 746]	0	0	0	20	0	80	90	0	20	0	40	0	0	0	60	0	0	0	0	0	pest or weed control at 250 g/ha [14]: 95%

Source: US12077503B2, “Substituted cyclic amides and their use as herbicides” (FMC CORPORATION, priority 2015, dated 2024)
